In patent US20230357179A1, “RAF KINASE INHIBITORS AND METHODS OF USE THEREOF” (Deciphera Pharmaceuticals, LLC, priority 2021, published 2023):

Tests used:
A375 cells = test: A375 cell proliferation assay (1), resazurin, 96-well; format: cell-based; conditions: Homo sapiens, A-375, inhibition of cell proliferation
Procedure: A375 Cell Proliferation Assay (1)
A375 cells (catalog (#CRL-1619) are obtained from the American Type Culture Collect (ATTC, Manassas, VA). Briefly, cells were grown in DMEM High Glucose supplemented with 10% characterized fetal bovine serum (Invitrogen, Carlsbad, CA) and 1% Penicillin/Streptomycin/L-Glutamine at 37° C., 5% CO2, and 95% humidity. Cells are expanded until reaching 70-95% confluency at which point they are sub-cultured or harvested for assay use. A serial dilution of test compound is dispensed into a 96-well black clear bottom plate in triplicate. Two thousand five hundred cells are added per well in 200 μL complete growth medium in the 96-well plate. Plates are incubated for 67-72 hours at 37° C., 5% CO2, and 95% humidity. At the end of the incubation, 40 μL of a 440 μM solution of resazurin (Sigma, St. Louis, MO) in PBS is added to each well of the plate and plates are incubated for an additional 5-6 hours at 37° C., 5% CO2, and 95% humidity. Plates are read on a Synergy2 or equivalent reader (Biotek, Winooski VT) using an excitation of 540 nm and an emission of 600 nm. Data is analyzed using Prism software (GraphPad, San Diego, CA) to calculate IC50 values.

A-Raf kinase = biological target: T1, A-Raf kinase (Homo sapiens, UniProt P10398, Y301D/Y302D); test: Biochemical assay for A-Raf.1 (coupled pyruvate kinase/lactate dehydrogenase); conditions: read-out: ARAF.1 IC50
T1 construct: purchased Sigma
Procedure: Biochemical assay for A-Raf.1
(§1) Activity of A-Raf kinase (SEQ. ID NO. 1) was determined spectroscopically using a coupled pyruvate kinase/lactate dehydrogenase assay that continuously monitors the ATP hydrolysis-dependent oxidation of NADH (e.g., Schindler et al., Science, 2000, 289, 1938-1942). Assays were conducted in 384-well plates (100 μL final volume) using 5.55 nM A-Raf (Sigma), 1.5 units pyruvate kinase, 2.1 units lactate dehydrogenase, 1 mM phosphoenol pyruvate, 0.28 mM NADH, 30.1 nM MEK (SignalChem), and 1 mM ATP in assay buffer (100 mM Tris, pH 7.5, 15 mM MgCl2, 0.5 mM DTT, 0.1% octyl-glucoside, 0.002% (w/v) BSA, and 0.002% Triton X-100). Inhibition of A-Raf was measured by adding serial diluted test compound (final assay concentration of 1% DMSO). A decrease in absorption at 340 nm was monitored continuously for 6 h at 30° C. on a multi-mode microplate reader (BioTek). The reaction rate was calculated using the 4 to 5 h time frame. The reaction rate at each concentration of compound was converted to percent inhibition using controls (i.e., reaction with no test compound and reaction with a known inhibitor) and IC50 values were calculated by fitting a four-parameter sigmoidal curve to the data using Prism (GraphPad software).

B-Raf kinase = biological target: T2, B-Raf kinase (Homo sapiens, UniProt P15056); test: Biochemical assay for B-Raf.1 (coupled pyruvate kinase/lactate dehydrogenase); conditions: read-out: BRAF.1 IC50
T2 construct: GST (N); purchased Sigma
Procedure: Biochemical Assay for B-Raf.1
as §1, with “B-Raf” for “A-Raf”, “NO: 2)” for “NO. 1)”, “0.13” for “5.55”

C-Raf kinase = biological target: T3, C-Raf kinase (Homo sapiens, UniProt P04049, Y340D/Y341D); test: Biochemical assay for C-Raf.1 (coupled pyruvate kinase/lactate dehydrogenase); conditions: read-out: CRAF.1 IC50
T3 construct: Y340D,; GST (N); purchased Sigma
Procedure: Biochemical Assay for C-Raf.1
as §1, with “C-Raf” for “A-Raf”, “NO: 3)” for “NO. 1)”, “0.43” for “5.55”

B-Raf (V600E) kinase = biological target: T4, B-Raf (V600E) kinase (Homo sapiens, UniProt P15056, V600E); test: Biochemical assay for B-Raf (V600E).1 (coupled pyruvate kinase/lactate dehydrogenase); conditions: read-out: BRAF V600E.1 IC50
T4 construct: B-Raf (V600E) residues 416-766 with a; GST (N); purchased SignalChem
Procedure: Biochemical Assay for B-Raf (V600E).1
Activity of B-Raf (V600E) (SEQ. ID NO: 4) kinase was determined spectroscopically using a coupled pyruvate kinase/lactate dehydrogenase assay that continuously monitors the ATP hydrolysis-dependent oxidation of NADH (e.g., Schindler et al., Science, 2000, 289, 1938-1942). Assays were conducted in 384-well plates (100 μL final volume) using 0.03 nM B-Raf (SignalChem), 1.5 units pyruvate kinase, 2.1 units lactate dehydrogenase, 1 mM phosphoenol pyruvate, 0.28 mM NADH, 30.1 nM MEK (SignalChem), and 1 mM ATP in assay buffer (100 mM Tris, pH 7.5, 15 mM MgCl2, 0.5 mM DTT, 0.1% octyl-glucoside, 0.002% (w/v) BSA, and 0.002% Triton X-100). Inhibition of B-Raf (V600E) was measured by adding serial diluted test compound (final assay concentration of 1% DMSO). A decrease in absorption at 340 nm was monitored continuously for 6 h at 30° C. on a multi-mode microplate reader (BioTek). The reaction rate was calculated using the 3 to 4 h time frame. The reaction rate at each concentration of compound was converted to percent inhibition using controls (i.e., reaction with no test compound and reaction with a known inhibitor) and IC50 values were calculated by fitting a four-parameter sigmoidal curve to the data using Prism (GraphPad software).

T3 sequence (P04049 307-648 Y340D/Y341D): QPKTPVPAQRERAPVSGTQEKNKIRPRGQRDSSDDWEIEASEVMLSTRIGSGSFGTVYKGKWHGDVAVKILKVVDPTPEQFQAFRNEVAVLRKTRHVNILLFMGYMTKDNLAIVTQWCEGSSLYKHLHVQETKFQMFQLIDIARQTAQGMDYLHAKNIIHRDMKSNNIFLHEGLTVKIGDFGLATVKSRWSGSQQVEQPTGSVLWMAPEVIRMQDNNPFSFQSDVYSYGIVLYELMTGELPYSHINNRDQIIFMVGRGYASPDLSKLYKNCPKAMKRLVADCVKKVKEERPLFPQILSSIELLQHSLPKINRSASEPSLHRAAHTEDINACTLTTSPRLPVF
T2 sequence (P15056 416-766): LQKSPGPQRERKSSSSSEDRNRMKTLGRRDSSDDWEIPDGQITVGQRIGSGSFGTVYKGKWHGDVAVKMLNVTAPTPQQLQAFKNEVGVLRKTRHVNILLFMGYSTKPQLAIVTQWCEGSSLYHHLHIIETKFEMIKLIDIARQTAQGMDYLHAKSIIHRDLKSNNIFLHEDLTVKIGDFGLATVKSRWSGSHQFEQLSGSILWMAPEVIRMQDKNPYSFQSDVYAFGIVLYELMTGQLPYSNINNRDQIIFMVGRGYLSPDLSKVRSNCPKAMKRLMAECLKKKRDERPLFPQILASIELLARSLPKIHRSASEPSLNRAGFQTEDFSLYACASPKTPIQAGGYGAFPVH
T1 sequence (P10398 with tags, fused parts or gaps Y301D/Y302D): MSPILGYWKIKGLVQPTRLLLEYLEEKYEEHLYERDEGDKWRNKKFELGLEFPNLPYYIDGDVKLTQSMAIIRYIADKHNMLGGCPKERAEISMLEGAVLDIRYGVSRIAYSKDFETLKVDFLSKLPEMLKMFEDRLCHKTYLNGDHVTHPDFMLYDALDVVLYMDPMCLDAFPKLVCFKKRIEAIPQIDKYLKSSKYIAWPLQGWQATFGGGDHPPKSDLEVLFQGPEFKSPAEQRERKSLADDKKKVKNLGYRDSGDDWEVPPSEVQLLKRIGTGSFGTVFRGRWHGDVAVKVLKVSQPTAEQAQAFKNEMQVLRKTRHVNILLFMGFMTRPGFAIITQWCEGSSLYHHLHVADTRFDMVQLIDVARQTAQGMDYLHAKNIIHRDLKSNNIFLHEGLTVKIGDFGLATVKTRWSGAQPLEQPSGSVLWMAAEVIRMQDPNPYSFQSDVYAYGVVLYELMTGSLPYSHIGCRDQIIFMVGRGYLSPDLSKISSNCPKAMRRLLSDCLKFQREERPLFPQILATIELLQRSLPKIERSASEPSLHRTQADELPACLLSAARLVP
T4 sequence (P15056 416-766 V600E): as the sequence (P15056 416-766) above, with V185E counted along it

| SMILES | IC50 (A375 cells) [nM] | IC50 (A-Raf kinase) [nM] | IC50 (B-Raf kinase) [nM] | IC50 (C-Raf kinase) [nM] | IC50 (B-Raf (V600E) kinase) [nM] |
| --- | --- | --- | --- | --- | --- |
| Cc1ccc(NC(=O)NCCC(C)(C)C)cc1-c1cc(-c2cnn(C)c2)nc(N2CCOCC2)c1 [Example 6] | 1000 to 10000 | > 1000 | 100 to 500 | 100 to 500 | ≤ 100 |
| Cc1cc(F)c(NC(=O)NCCC(C)(C)C)cc1-c1cc(OCCO)nc(C2CCOCC2)c1 [Example 9] | 100 to 500 | > 1000 | ≤ 100 | ≤ 100 | ≤ 100 |
| Cc1ccc(NC(=O)NCCC(C)(C)C)cc1-c1cc(N2CCOCC2)nc(N2CC(O)C2)n1 [Example 11] | 1000 to 10000 | > 1000 | 500 to 1000 | 100 to 500 | ≤ 100 |
| Cc1ccc(NC(=O)NC2CCCCCC2)cc1-c1cc(OCCO)nc(N2CCOCC2)c1 [Example 13] | 1000 to 10000 | > 1000 | 100 to 500 | ≤ 100 | ≤ 100 |
| Cc1ccc(NC(=O)N[C@@H]2CCc3ccccc32)cc1-c1cc(OCCO)nc(N2CCOCC2)c1 [Example 15] | 1000 to 10000 | > 1000 | 100 to 500 | ≤ 100 | ≤ 100 |
| Cc1ncc(NC(=O)NCCC(C)(C)C)cc1-c1cc(N2CCOCC2)nc(N2CCOCC2)c1 [Example 19] | 1000 to 10000 | > 1000 | 500 to 1000 | 100 to 500 | ≤ 100 |
| Cc1ccc(NC(=O)N[C@H]2CCc3ccccc32)cc1-c1cc(OCCO)nc(N2CCOCC2)c1 [Example 20] | 500 to 1000 | > 1000 | 500 to 1000 | 100 to 500 | ≤ 100 |
| Cc1ccc(NC(=O)NCCC(C)(C)C#N)cc1-c1cc(-c2cnn(C)c2)nc(N2CCOCC2)c1 [Example 21] | 1000 to 10000 | > 1000 | 500 to 1000 | 100 to 500 | ≤ 100 |
| Cc1cc(F)c(NC(=O)NCCC(C)(C)F)cc1-c1cc(OCCO)nc(-c2ccncc2)c1 [Example 25] | 1000 to 10000 | > 1000 | 100 to 500 | ≤ 100 | ≤ 100 |
| Cc1cc(F)c(NC(=O)NCCC2(C(F)(F)F)CC2)cc1-c1cc(N2CCOCC2)nc(N2CC[C@H](N(C)C)C2)c1 [Example 26] | 1000 to 10000 | > 1000 | 100 to 500 | 100 to 500 | ≤ 100 |
| CNc1cc(-c2cc(-c3cc(NC(=O)NCCC4(C)CC4)c(F)cc3C)cc(OCCO)n2)ccn1 [Example 27] | 500 to 1000 | > 1000 | ≤ 100 | ≤ 100 | ≤ 100 |
| CNc1cc(-c2cc(-c3cc(NC(=O)NCCC4(C(F)(F)F)CC4)c(F)cc3C)cc(OCCO)n2)ccn1 [Example 28] | 100 to 500 | > 1000 | 100 to 500 | ≤ 100 | ≤ 100 |
| Cc1cc(F)c(NC(=O)Nc2cnn(C(C)(C)C)c2)cc1-c1cc(OCCN(C)C)nc(N2CCOCC2)c1 [Example 29] | 1000 to 10000 | > 1000 | 500 to 1000 | 100 to 500 | ≤ 100 |
| Cc1cc(F)c(NC(=O)NCCC2(C(F)(F)F)CC2)cc1-c1cc(N2CCOCC2)nc(N2CC(N(C)C)C2)n1 [Example 30] | 1000 to 10000 | > 1000 | > 1000 | 500 to 1000 | ≤ 100 |
| Cc1cc(F)c(NC(=O)NCCC2(C)CC2)cc1-c1nc(NCCO)cc(N2CCOCC2)n1 [Example 31] | 1000 to 10000 | > 1000 | 100 to 500 | 100 to 500 | ≤ 100 |
| Cc1cc(F)c(NC(=O)NCCC2(C)CC2)cc1-c1cc(OCCO)nc(-c2ccncc2)c1 [Example 32] | 1000 to 10000 | > 1000 | ≤ 100 | ≤ 100 | ≤ 100 |
| Cc1cc(F)c(NC(=O)NCCC2(C)CC2)cc1-c1cc(OC2CCN(C)CC2)nc(-c2ccncc2)c1 [Example 36] | 1000 to 10000 | > 1000 | 100 to 500 | 100 to 500 | ≤ 100 |
| Cc1ccc(NC(=O)NCCC2(C)CC2)cc1-c1cc(-c2cnn(C)c2)nc(N2CCOCC2)c1 [Example 37] | 1000 to 10000 | > 1000 | ≤ 100 | ≤ 100 | ≤ 100 |
| Cc1cc(F)c(NC(=O)NC2CCC(F)(F)CC2)cc1-c1cc(-c2cnn(C)c2)nc(N2CCOCC2)c1 [Example 39] | 1000 to 10000 | > 1000 | ≤ 100 | ≤ 100 | ≤ 100 |
| COC(C)(C)CCNC(=O)Nc1cc(-c2cc(OCCO)nc(-c3ccncc3)c2)c(C)cc1F [Example 40] | 1000 to 10000 | > 1000 | 100 to 500 | 100 to 500 | ≤ 100 |
| Cc1cc(F)c(NC(=O)NCCC(C)(C)C#N)cc1-c1cc(OCCO)nc(-c2ccncc2)c1 [Example 41] | 1000 to 10000 | > 1000 | 100 to 500 | 100 to 500 | ≤ 100 |
